Results on nine compounds are retold here after US4992432A, “3-phenyl-thiazepinones as calcium regulating agents” (Hoffmann-La Roche Inc., priority 1990, dated 1991).

Where a name gives a salt, the structure may show the parent alone.

In the test the test system is isolated rat aortic strips. The test is described as follows: Contraction of Rat Aortic Strips (inhibition of calcium-induced contracture, calcium channel blocking activity). Format: cell-based. As to conditions: for inhibition at 0.3 µM: Rattus norvegicus, 3×10^-7 M compound, 15 minutes prior to and during calcium curve, 2 mM Ca++, 45 mM potassium, as compared to the control, read-out: % Inhibition (effect on the 2mM Ca++ contracture); for reduction in responsiveness to / contracture at 2 mM Ca++ (in words): 3×10^-7 M, 15 minute exposure. How it is done: The calcium channel blocking activity of compounds of formula I was determined by measuring the effect of compounds of formula I on isolated rat aortic strips. Contraction of Rat Aortic Strips Aortas were excised from rats, placed in Krebs-Henseleit solution, modified so as to be calcium free, with a depolarized level of potassium (45 mM), and 0.02 mM EDTA. The aorta was then helically cut into a strip. This strip was then divided into four equal segments which were hung in isolated tissue chambers, attached to the appropriate tranducers and subjected to 500 mg basal tension. After a period of stabilization under these conditions, calcium was introduced into the bath and the tissues contracted in a concentration dependent manner. When no calcium is available in the bathing media, and the potential dependent calcium channels are opened by the high potassium level, contractility is dependent on the level of calcium introduced into the bath. By adding increments of calcium into the bath, a reproducible concentration-dependent contracture can be obtained. […] The number for untreated controls was derived by measuring contracture for two runs where calcium alone was added. […] The inhibition in contractile response at 2mMCa++was measured as a per cent inhibition as compared to the control.

Turning to `COc1ccc([C@H]2SC=C(c3ccccc3)N(CCN(C)C)C(=O)[C@H]2O)cc1` (racemic) [D, cis-rac.-6,7-Dihydro-6-hydroxy-7-(4-methoxyphenyl)-4[2-(dimethylamino)ethyl]-3-phenyl-1,4-thiazepin-5(4H)-one hydrochloride], the inhibition at 0.3 µM was -16.5%.

As for `COc1ccc([C@@H]2SC=C(c3ccccc3)N(CCN(C)C)C(=O)[C@H]2OC(C)=O)cc1` (racemic) [G, trans-rac.-6-(Acetyloxy)-6,7-dihydro-7-(4-methoxy-phenyl)-4-[2-(dimethylamino)ethyl]-3-phenyl-1,4-thiazepin-5(4H)-one hydrochloride], the inhibition at 0.3 µM was -8.4%.

On to `COc1ccc([C@@H]2SC=C(c3ccccc3)N(CCN(C)C)C(=O)[C@H]2O)cc1` (racemic) [H, trans-rac.-6,7-Dihydro-6-hydroxy-7-(4-methoxyphenyl) -4-[2-(dimethylamino)ethyl]-3-phenyl-1,4-thiazepin-5 (4H)-one (E)-2-butenedioate], for which the inhibition at 0.3 µM was -5.6%.

For `COc1ccc([C@@H]2SC=C(c3ccccc3)N(CCN(C)C)C(=O)[C@@H]2OC)cc1` (relative stereo) [C, cis-rac.6,7-Dihydro-6-methoxy-7-(4-methoxyphenyl)-4[2-(dimethylamino)ethyl-3-phenyl-1,4-thiazepin-5(4H)-one hydrochloride], the inhibition at 0.3 µM was -22.1%.

`COc1ccc([C@@H]2SC=C(c3ccccc3)N(CCN(C)C)C(=O)[C@@H]2OC(C)=O)cc1` (relative stereo) [Compound B, cis-rac.6-(Acetyloxy)-6,7-dihydro-7-(4-methoxyphenyl) -4-[2-(dimethylamino)ethyl]-3-phenyl-1,4-thiazepin-5(4H)-one hydrochloride]: the inhibition at 0.3 µM is -26.8%.

Consider `COc1ccc([C@@H]2SC=C(c3ccccc3)N(CCN(C)C)C(=O)[C@@H]2OC(C)=O)cc1` [Compound A, (+)-cis-6-(Acetyloxy)-6,7-dihydro-7-(4-methoxyphenyl) 4-[2-(dimethylamino)ethyl]-3-phenyl-1,4-thiazepin-5-(4H)-one hydrochloride], for which the “reduction in responsiveness to / contracture at 2 mM Ca++ (in words)” value was “inhibited almost two thirds of the contracture” and the inhibition at 0.3 µM is -63%.

Regarding `COc1ccc([C@@H]2Sc3ccccc3N(CCN(C)C)C(=O)[C@@H]2OC(C)=O)cc1` [Diltiazem, reference compound], the “reduction in responsiveness to / contracture at 2 mM Ca++ (in words)” value is on record as “marked reduction in responsiveness” and the inhibition at 0.3 µM was -77%.

On to `COc1ccc([C@@H]2SC=C(c3ccccc3)N(CCN(C)C)C(=O)[C@@H]2O)cc1` [E], for which the inhibition at 0.3 µM was -13%.

In the case of `COc1ccc([C@H]2SC=C(c3ccccc3)N(CCN(C)C)C(=O)[C@H]2OC(C)=O)cc1` [F, (-)-cis-6-(Acetyloxy)-6,7-dihydro-7-(4-methoxyphenyl) -4-[2-(dimethylamino)ethyl]-3-phenyl-1,4-thiazepin-5 (4H)-one [S-(R,* R,*)]-2,3-dihydroxybutanedioic acid salt], the inhibition at 0.3 µM was -9.1%.
